In PubChem BioAssay AID1259411 (Chemical Carcinogenesis Research Information System (CCRIS), 2018):
The source made the active and inactive calls. How the calls were made is not given here.

System: rodent carcinogenicity bioassays, tumor incidence
Test: CCRIS carcinogenicity studies
In short: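 Archive of carcinogenicity, mutagenicity, tumor promotion and tumor inhibition results drawn from journals, NCI reports and other sources, expert-reviewed; covers 1985-2011 and is no longer updated.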

In the case of `CC1=CC(C)(C)N(N=O)c2ccccc21`, the carcinogen call (Species: RAT, Strain/Sex: CB/MALE, Route: INTRAPERITONEAL, Dose: 0, 25 MG IN POLYETHYLENE GLYCOL 400 1/WK FOR 6 MO FOR A TOTAL DOSE OF 0, 650 MG (STUDY DURATION: 24 MO), Dose: 0, 25 MG IN POLYETHYLENE GLYCOL 400 1/WK FOR 6 MO FOR A TOTAL DOSE OF 0, 650 MG (STUDY DURATION: 24 MO), Tumor Site: Type of Lesion: PERITONEUM: SARCOMA) is reported as “active; positive”.
In the case of `CCCCCCCCCCCCc1ccccc1`, the carcinogen call (Species: MOUSE, Strain/Sex: HR/HR OSLO/MALE, FEMALE, Route: DERMAL, Dose: 0, 16, 80% IN ACETONE 2/WK FOR 78 WK (STUDY DURATION: 80 WK), Dose: 0, 16, 80% IN ACETONE 2/WK FOR 78 WK (STUDY DURATION: 80 WK), Tumor Site: Type of Lesion: SKIN: TUMOR) is reported as “active; positive”.
For `ClCC(Cl)(Cl)Cl`, the carcinogen call (Species: MOUSE, Strain/Sex: B6C3F1/FEMALE, Route: GAVAGE, Dose: 0, 250, 500 MG/KG IN CORN OIL, Dose: 0, 250, 500 MG/KG IN CORN OIL, Tumor Site: Type of Lesion: LIVER: HEPATOCELLULAR ADENOMA OR CARCINOMA) was “active; positive”, the carcinogen call (Species: MOUSE, Strain/Sex: B6C3F1/MALE, Route: GAVAGE, Dose: 0, 250, 500 MG/KG IN CORN OIL, Dose: 0, 250, 500 MG/KG IN CORN OIL, Tumor Site: Type of Lesion: LIVER: HEPATOCELLULAR ADENOMA) was “active; positive” and the carcinogen call (Species: RAT, Strain/Sex: F344/FEMALE, Route: GAVAGE, Dose: 0, 125, 250 MG/KG IN CORN OIL 5 D/WK FOR 103 WK (STUDY DURATION: 103 WK), Dose: 0, 125, 250 MG/KG IN CORN OIL 5 D/WK FOR 103 WK (STUDY DURATION: 103 WK)) was “inactive; negative”. The carcinogen call (Species: RAT, Strain/Sex: F344/MALE, Route: GAVAGE, Dose: 0, 125, 250 MG/KG IN CORN OIL 5 D/WK FOR 103 WK (STUDY DURATION: 103 WK), Dose: 0, 125, 250 MG/KG IN CORN OIL 5 D/WK FOR 103 WK (STUDY DURATION: 103 WK), Tumor Site: Type of Lesion: LIVER: NEOPLASTIC NODULE, HEPATOCELLULAR CARCINOMA) was “equivocal”.
In the case of `Nc1cc([N+](=O)[O-])ccc1O`, the carcinogen call (Species: MOUSE, Strain/Sex: B6C3F1/FEMALE, Route: GAVAGE, Dose: 0, 125, 250 MG/KG IN CORN OIL 5D/WK FOR 103 WK (STUDY DURATION: 105 WK), Dose: 0, 125, 250 MG/KG IN CORN OIL 5D/WK FOR 103 WK (STUDY DURATION: 105 WK)) is reported as “inactive; negative”, the carcinogen call (Species: MOUSE, Strain/Sex: B6C3F1/MALE, Route: GAVAGE, Dose: 0, 125, 250 MG/KG IN CORN OIL 5D/WK FOR 103 WK (STUDY DURATION: 105 WK), Dose: 0, 125, 250 MG/KG IN CORN OIL 5D/WK FOR 103 WK (STUDY DURATION: 105 WK)) is reported as “inactive; negative” and the carcinogen call (Species: RAT, Strain/Sex: F344/FEMALE, Route: GAVAGE, Dose: 0, 125, 250 MG/KG IN CORN OIL 5D/WK FOR 103 WK (STUDY DURATION: 105 WK), Dose: 0, 125, 250 MG/KG IN CORN OIL 5D/WK FOR 103 WK (STUDY DURATION: 105 WK)) is reported as “inactive; negative”. The carcinogen call (Species: RAT, Strain/Sex: F344/MALE, Route: GAVAGE, Dose: 0, 125, 250 MG/KG IN CORN OIL 5D/WK FOR 103 WK (STUDY DURATION: 105 WK), Dose: 0, 125, 250 MG/KG IN CORN OIL 5D/WK FOR 103 WK (STUDY DURATION: 105 WK), Tumor Site: Type of Lesion: PREPUTIAL GLAND: ADENOMA OR CARCINOMA) was “active; positive”.
With `O=C(O)c1ccc([N+](=O)[O-])cc1` the carcinogen call (Species: MOUSE, Strain/Sex: B6C3F1/FEMALE, Route: ORAL, Dose: 0, 1250, 2500, 5000 PPM IN DIET FOR 103 WK (STUDY DURATION: 104 WK), Dose: 0, 1250, 2500, 5000 PPM IN DIET FOR 103 WK (STUDY DURATION: 104 WK)) was “inactive; negative”, the carcinogen call (Species: MOUSE, Strain/Sex: B6C3F1/MALE, Route: ORAL, Dose: 0, 1250, 2500, 5000 PPM IN DIET FOR 103 WK (STUDY DURATION: 104 WK), Dose: 0, 1250, 2500, 5000 PPM IN DIET FOR 103 WK (STUDY DURATION: 104 WK)) was “inactive; negative” and the carcinogen call (Species: RAT, Strain/Sex: F344/FEMALE, Route: ORAL, Dose: 0, 1250, 2500, 5000 PPM IN DIET FOR 103 WK (STUDY DURATION: 104 WK), Dose: 0, 1250, 2500, 5000 PPM IN DIET FOR 103 WK (STUDY DURATION: 104 WK), Tumor Site: Type of Lesion: CLITORAL GLAND: ADENOMA, ADENOMA OR CARCINOMA) was “active; positive”. The carcinogen call (Species: RAT, Strain/Sex: F344/MALE, Route: ORAL, Dose: 0, 1250, 2500, 5000 PPM IN DIET FOR 103 WK (STUDY DURATION: 104 WK), Dose: 0, 1250, 2500, 5000 PPM IN DIET FOR 103 WK (STUDY DURATION: 104 WK)) was “inactive; negative”.
In the case of `ClC1=C(Cl)[C@]2(Cl)C3C(Cl)C(Cl)CC3[C@@]1(Cl)C2(Cl)Cl` (stereo not given in full), the carcinogen call (Species: MOUSE, Strain/Sex: B6C3F1/FEMALE, Route: ORAL, Dose: 0, 30.1, 63.8 PPM IN DIET, TWA, Dose: 0, 30.1, 63.8 PPM IN DIET, TWA, Tumor Site: Type of Lesion: LIVER: HEPATOCELLULAR CARCINOMA) is reported as “active; positive”, the carcinogen call (Species: MOUSE, Strain/Sex: B6C3F1/MALE, Route: ORAL, Dose: 0, 29.9, 56.2 PPM IN DIET, TWA, Dose: 0, 29.9, 56.2 PPM IN DIET, TWA, Tumor Site: Type of Lesion: LIVER: HEPATOCELLULAR CARCINOMA) is reported as “active; positive” and the carcinogen call (Species: MOUSE, Strain/Sex: B6C3F1/MALE, Route: ORAL, Dose: 0, 55 PPM IN DIET BEGINNING AT 63 D OF AGE, AT 8 MO OF AGE DOSE INCREASED TO 60 PPM AND CONTINUED UNTIL 491 D OF AGE (ST, Tumor Site: Type of Lesion: LIVER: HEPATOCELLULAR ADENOMA, HEPATOCELLULAR CARCINOMA) is reported as “active; positive”. For the same molecule, the carcinogen call (Species: MOUSE, Strain/Sex: B6C3F1/MALE, Route: ORAL, Dose: 0, 55 PPM IN DIET BEGINNING AT 63 D OF AGE, AT 8 MO OF AGE DOSE WAS INCREASED TO 60 PPM FOR DURATION OF STUDY (STUDY DUR, Tumor Site: Type of Lesion: LIVER: HEPATOCELLULAR ADENOMA, HEPATOCELLULAR CARCINOMA) was “active; positive”, the carcinogen call (Species: MOUSE, Strain/Sex: B6D2F1/MALE, Route: ORAL, Dose: 0, 55 PPM IN DIET BEGINNING AT 63 D OF AGE, AT 8 MO OF AGE DOSE INCREASED TO 60 PPM AND CONTINUED UNTIL 491 D OF AGE (ST, Tumor Site: Type of Lesion: LIVER: HEPATOCELLULAR ADENOMA, HEPATOCELLULAR CARCINOMA) was “active; positive” and the carcinogen call (Species: MOUSE, Strain/Sex: B6D2F1/MALE, Route: ORAL, Dose: 0, 55 PPM IN DIET BEGINNING AT 63 D OF AGE, AT 8 MO OF AGE DOSE WAS INCREASED TO 60 PPM FOR DURATION OF STUDY (STUDY DUR, Tumor Site: Type of Lesion: LIVER: HEPATOCELLULAR ADENOMA, HEPATOCELLULAR CARCINOMA) was “active; positive”. For the same molecule, the carcinogen call (Species: MOUSE, Strain/Sex: CD-1/MALE,FEMALE, Route: DIET, Dose: 0, 5, 25, 50 MG/KG FOR 18 MO, Tumor Site: Type of Lesion: LIVER: HEPATOCELLULAR CARCINOMA) was “active; positive”, the carcinogen call (Species: RAT, Strain/Sex: OSBORNE-MENDEL/FEMALE, Route: ORAL, Dose: 0, 120.8, 241.5PPM IN DIET, TWA, Dose: 0, 120.8, 241.5PPM IN DIET, TWA) was “inactive; negative” and the carcinogen call (Species: RAT, Strain/Sex: OSBORNE-MENDEL/MALE, Route: ORAL, Dose: 0, 203.5, 407.0PPM IN DIET, TWA, Dose: 0, 203.5, 407.0PPM IN DIET, TWA) was “inactive; negative”.
In the case of `Nc1ccc(C(=O)Nc2ccccc2N)cc1`, the carcinogen call (Species: RAT, Strain/Sex: CD-1/FEMALE, Route: GAVAGE, Dose: 0, 1, 3, 9 (WK 1-25), 6 (WK 26-46), 5 (WK 47-106) MG/KG IN 0.8% METHOCEL (TOTAL VOLUME 0.2-0.5 ML/RAT 2/WK FOR 105 WK (M, Dose: 0, 1, 3, 9 (WK 1-25), 6 (WK 26-46), 5 (WK 47-106) MG/KG IN 0.8% METHOCEL (TOTAL VOLUME 0.2-0.5 ML/RAT 2/WK FOR 105 WK (M, Tumor Site: Type of Lesion: ADRENAL GLAND: TUMOR, OVARIES: TUMOR, VAGINA: TUMOR, Tumor Site: Type of Lesion: ADRENAL GLAND: TUMOR, OVARIES: TUMOR, VAGINA: TUMOR) is reported as “active; positive” and the carcinogen call (Species: RAT, Strain/Sex: CD-1/MALE, Route: GAVAGE, Dose: 0, 1, 3, 9 (WK 1-25), 6 (WK 26-46), 5 (WK 47-106) MG/KG IN 0.8% METHOCEL(TOTAL VOLUME 0.2-0.5 ML/RAT 2/WK FOR 105 WK (ME, Dose: 0, 1, 3, 9 (WK 1-25), 6 (WK 26-46), 5 (WK 47-106) MG/KG IN 0.8% METHOCEL(TOTAL VOLUME 0.2-0.5 ML/RAT 2/WK FOR 105 WK (ME, Tumor Site: Type of Lesion: ADRENAL GLAND: TUMOR, TESTES: TUMOR) is reported as “active; positive”.
